The text below walks through data of patent US12180207B2 (ARRAY BIOPHARMA INC., priority 2018, dated 2024).

Structures are written as SMILES.

The target of test [1] is dephosphorylated FGFR1 (SEQ ID NO: 1, amino acids 458 to 765) (Homo sapiens (Human), UniProt P11362). The experiment in a line: FGFR enzyme binding assay (HTRF tracer displacement), FGFR1. The settings on record: 5 nM dephosphorylated FGFR1, average of multiple determinations if made. The method, then:
(§1) The potency of compounds inhibiting human isoforms of FGFR kinase was determined using Life Technologies' Homogeneous Time Resolved Fluorescence (HTRF)-based binding assay technology. […] After a 60 minute incubation at 22° C., the extent of tracer displacement was determined using a PerkinElmer EnVision multimode plate reader via HTRF dual wavelength detection, and the percent of control (POC) was calculated using a ratiometric emission factor. One hundred POC was determined using no test compound, and 0 POC was determined in the presence of 1 μM of an appropriate control inhibitor.
A general note: TR-FRET usually uses a lanthanide donor and a delayed reading to cut background.

Test [2] concerns the target phosphorylated FGFR3 (SEQ ID NO: 5, amino acids 449 to 759) (Homo sapiens (Human), UniProt P22607). The experiment in a line: FGFR enzyme binding assay (HTRF tracer displacement), FGFR3. The settings on record: 5 nM phosphorylated FGFR3, average of multiple determinations if made. As for the experimental part:
as §1

The target in test [3] is recombinant human FGFR1 catalytic domain (amino acids 308-731) (Homo sapiens (Human), UniProt P11362). The test can be described thus: FGFR1 enzyme activity assay (LanthaScreen TR-FRET). It is filed as biochemical. The settings on record: 20 min incubation at 22° C., average of multiple determinations if made, read-out: FGFR1 Enz FRET IC50. As for the experimental part: FGFR1 kinase activity was measured by the Invitrogen LanthaScreen™ Assay technology which directly measures the amount of substrate phosphorylation by Time-resolved fluorescence energy transfer (TR-FRET) using a fluorescently-labeled peptide and Europium-labeled antibody. Briefly, […] His-tagged recombinant human FGFR1 catalytic domain (amino acids 308-731) (Life Technologies Cat. No. PR4660A) was incubated with 100 nM Alexa Fluor® 647-Poly-GT Peptide Substrate (Life Technologies Cat. No. PV5836) and […] ATP along with test compound in a buffer consisting of 250 mM HEPES, 25 mM MgCl2, 0.05% TritonX-100, pH 7.5, and 2% DMSO. […] After a 20 minutes incubation at 22° C., an equal volume of 2 nM LanthaScreen® Eu-PY20 Antibody (Life Technologies Cat. No. PV5691) and 10 mM EDTA was added to quench the kinase reaction and start the detection reaction. After an additional 60 minute incubation at 22° C., the reaction was measured using a PerkinElmer EnVision multimode plate reader via TR-FRET dual wavelength detection, and the percent of control (POC) calculated using a ratiometric emission factor. 100 POC was determined using no test compounds and 0 POC was determined using no enzyme. The POC values were fit to a 4-parameter logistic curve as a function of the concentration of the compound, and the IC50 value is the point where the curve crosses 50 POC.

Test [4] addresses recombinant human FGFR2 cytoplasmic domain (amino acids 403-822) (Homo sapiens (Human), UniProt P21802). The experiment in a line: FGFR2 enzyme activity assay (LanthaScreen TR-FRET). As to conditions: 15 μM ATP, 20 min incubation at 22° C., average of multiple determinations if made, read-out: FGFR2 Enz FRET IC50. It is filed as biochemical. The method, then:
FGFR2 kinase activity was measured by the Invitrogen LanthaScreen™ Assay technology which directly measures the amount of substrate phosphorylation by TR-FRET using a fluorescently-labeled peptide and Europium-labeled antibody. Briefly, […] His-tagged recombinant human FGFR2 cytoplasmic domain (amino acids 403-822) (Life Technologies Cat. No. PR5332A) was incubated with 100 nM Alexa Fluor® 647-Poly-GT Peptide Substrate (Life Technologies Cat. No. PV5836) and 15 μM ATP along with test compound in a buffer consisting of 250 mM HEPES, 25 mM MgCl2, 0.05% TritonX-100, pH 7.5, and 2% DMSO. […] After a 20 minute incubation at 22° C., an equal volume of 2 nM LanthaScreen® Eu-PY20 Antibody (Life Technologies Cat. No. PV5691) and 10 mM EDTA were added to quench the kinase reaction and start the detection reaction. After an additional 60 minute incubation at 22° C., the reaction was measured using a PerkinElmer EnVision multimode plate reader via TR-FRET dual wavelength detection, and the percent of control (POC) calculated using a ratiometric emission factor. 100 POC was determined using no test compounds and 0 POC was determined using no enzyme. The POC values were fit to a 4-parameter logistic curve as a function of the concentration of the compound, and the IC50 value is the point where the curve crosses 50 POC.

For test [5], the target named is recombinant human FGFR3 (amino acids R397-T806) (Homo sapiens (Human), UniProt P22607). The test can be described thus: FGFR3 enzyme activity assay (LanthaScreen TR-FRET). It is filed as biochemical. The settings on record: 25 μM ATP, 10 min incubation at 22° C., average of multiple determinations if made, read-out: FGFR3 Enz FRET IC50. As for the experimental part: FGFR3 kinase activity was measured by the Invitrogen LanthaScreen™ Assay technology which directly measures the amount of substrate phosphorylation by TR-FRET using a fluorescently-labeled peptide and Europium-labeled antibody. Briefly, […] N-terminal GST-HIS6 fusion protein with a 3C cleavage site recombinant human FGFR3 (amino acids R397-T806) (ProQinase Cat. No. 1068-0000-1) was incubated with 100 nM Alexa Fluor® 647-Poly-GT Peptide Substrate (Life Technologies Cat. No. PV5836) and 25 μM ATP along with test compound in a buffer consisting of 250 mM HEPES, 25 mM MgCl2, 0.05% TritonX-100, pH 7.5, and 2% DMSO. […] After a 10 minute incubation at 22° C., an equal volume of 2 nM LanthaScreen® Eu-PY20 Antibody (Life Technologies Cat. No. PV5691) and 10 mM EDTA were added to quench the kinase reaction and start the detection reaction. After an additional 60 minute incubation at 22° C., the reaction was measured using a PerkinElmer EnVision multimode plate reader via TR-FRET dual wavelength detection, and the percent of control (POC) calculated using a ratiometric emission factor. 100 POC was determined using no test compounds and 0 POC was determined using no enzyme. The POC values were fit to a 4-parameter logistic curve as a function of the concentration of the compound, and the IC50 value is the point where the curve crosses 50 POC.

The target of test [6] is FGFR1 (SEQ ID NO: 1, amino acids 458-765) (Homo sapiens (Human), UniProt P11362). The experiment in a line: LC/MS FGFR1 kobs assay (covalent protein modification). As to conditions: 500 nM FGFR1, 3 μM compound. It is filed as binding. As for the experimental part: (§2) The LC/MS FGFR1 and FGFR3 kobs assays were conducted as follows. […] At each time point, the reaction was quenched with 20 μL of 0.4% formic acid. The extent of protein modification by each compound was determined by LC/MS on an Agilent Technologies 6520 Q-TOF LC/MS. Protein signals were then automatically deconvoluted using Agilent Masshunter software. Deconvoluted mass signals were exported to Tibco Spotfire data analysis program for further processing and normalization.
(§3) Data analysis included five steps. First, the signals for the “DMSO Controls” were analyzed to determine the percent of signal associated with unmodified FGFR1 or FGFR3 at each time point. Next, the percent of the signal associated with the covalent modification was determined. Third, the average nonmodified “DMSO Control” signal was used to normalize the modified protein signals at each time point. The percent of unmodified protein was fit to an exponential decay model where A0 is the Percent Unmodified at the start of the reaction, and kobs is the observed rate constant over the time period.

For test [7], the target named is FGFR3 (SEQ ID NO: 5, amino acids 449-759) (Homo sapiens (Human), UniProt P22607). The test can be described thus: LC/MS FGFR3 kobs assay (covalent protein modification). It is filed as binding. The settings on record: 500 nM FGFR3, 3 μM compound. The method, then:
as §2, §3
Table EC contains kobs values for compounds tested in these assays, presented as the average of multiple determinations if multiple determinations were made. ND=not determined.

recombinant human FGFR3 (amino acids R397-T806), sequence (P22607 397-806): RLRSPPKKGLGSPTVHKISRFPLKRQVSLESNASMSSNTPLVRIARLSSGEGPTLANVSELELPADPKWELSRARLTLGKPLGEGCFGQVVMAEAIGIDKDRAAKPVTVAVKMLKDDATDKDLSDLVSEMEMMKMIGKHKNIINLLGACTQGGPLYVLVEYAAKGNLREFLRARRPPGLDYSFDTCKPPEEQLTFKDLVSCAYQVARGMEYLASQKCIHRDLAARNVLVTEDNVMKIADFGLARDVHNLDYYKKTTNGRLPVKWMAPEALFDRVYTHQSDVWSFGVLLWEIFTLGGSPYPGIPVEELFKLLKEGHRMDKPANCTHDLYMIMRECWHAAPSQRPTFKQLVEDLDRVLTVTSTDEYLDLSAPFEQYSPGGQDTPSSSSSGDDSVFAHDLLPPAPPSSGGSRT
dephosphorylated FGFR1 (SEQ ID NO: 1, amino acids 458 to 765), sequence (P11362 458-765): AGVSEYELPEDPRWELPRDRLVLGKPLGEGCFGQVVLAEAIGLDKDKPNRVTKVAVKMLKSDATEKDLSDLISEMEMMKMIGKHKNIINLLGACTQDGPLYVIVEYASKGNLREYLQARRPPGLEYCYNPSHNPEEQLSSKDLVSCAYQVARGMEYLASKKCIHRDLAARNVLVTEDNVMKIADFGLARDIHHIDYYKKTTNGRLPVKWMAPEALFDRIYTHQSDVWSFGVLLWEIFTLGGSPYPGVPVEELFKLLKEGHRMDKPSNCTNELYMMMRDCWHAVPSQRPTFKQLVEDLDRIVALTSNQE
recombinant human FGFR2 cytoplasmic domain (amino acids 403-822), sequence (P21802 402-821): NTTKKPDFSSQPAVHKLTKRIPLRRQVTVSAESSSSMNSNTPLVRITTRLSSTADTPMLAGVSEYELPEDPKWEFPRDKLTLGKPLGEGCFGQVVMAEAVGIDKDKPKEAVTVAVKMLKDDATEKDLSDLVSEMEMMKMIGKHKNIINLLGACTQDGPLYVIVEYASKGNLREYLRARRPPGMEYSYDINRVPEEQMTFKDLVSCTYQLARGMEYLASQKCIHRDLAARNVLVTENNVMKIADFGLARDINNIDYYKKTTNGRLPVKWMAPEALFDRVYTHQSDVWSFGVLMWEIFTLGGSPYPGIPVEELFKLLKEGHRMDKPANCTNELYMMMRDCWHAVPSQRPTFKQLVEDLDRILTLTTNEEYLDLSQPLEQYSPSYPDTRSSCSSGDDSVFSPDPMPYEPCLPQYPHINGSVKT
recombinant human FGFR1 catalytic domain (amino acids 308-731), sequence (P11362 other isoform, or with tags, fused parts or gaps): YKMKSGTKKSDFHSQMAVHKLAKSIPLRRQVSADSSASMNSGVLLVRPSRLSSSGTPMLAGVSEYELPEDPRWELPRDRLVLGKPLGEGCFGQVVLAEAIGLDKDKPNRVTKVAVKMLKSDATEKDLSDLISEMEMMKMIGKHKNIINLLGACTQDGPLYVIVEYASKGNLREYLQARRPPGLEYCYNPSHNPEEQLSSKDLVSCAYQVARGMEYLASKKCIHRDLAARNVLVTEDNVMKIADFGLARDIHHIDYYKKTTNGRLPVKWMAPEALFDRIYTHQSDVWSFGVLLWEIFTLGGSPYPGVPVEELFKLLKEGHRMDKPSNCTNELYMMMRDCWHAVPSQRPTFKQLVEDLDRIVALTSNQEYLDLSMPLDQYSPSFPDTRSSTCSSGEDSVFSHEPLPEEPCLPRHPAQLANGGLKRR
phosphorylated FGFR3 (SEQ ID NO: 5, amino acids 449 to 759), sequence (P22607 449-759): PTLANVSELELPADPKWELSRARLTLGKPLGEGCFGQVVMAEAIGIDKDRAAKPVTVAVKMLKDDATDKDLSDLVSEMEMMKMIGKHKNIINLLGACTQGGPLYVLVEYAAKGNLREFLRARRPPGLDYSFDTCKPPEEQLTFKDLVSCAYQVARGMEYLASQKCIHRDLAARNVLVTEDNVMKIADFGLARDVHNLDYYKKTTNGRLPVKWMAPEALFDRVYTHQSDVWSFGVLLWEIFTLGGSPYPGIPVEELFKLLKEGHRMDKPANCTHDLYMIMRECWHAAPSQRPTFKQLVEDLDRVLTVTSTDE
FGFR3 (SEQ ID NO: 5, amino acids 449-759), sequence (P22607 449-759): as above
FGFR1 (SEQ ID NO: 1, amino acids 458-765), sequence (P11362 458-765): as the sequence (P11362 458-765) above

The IC50 is the concentration at which inhibition is half-maximal. Regarding `C=CC(=O)N1CCN(C(=O)N2CCC(n3cc(-c4cc(OC)c5c(C#N)cnn5c4)cn3)CC2)CC1` [Example 2, 6-(1-(1-(4-acryloylpiperazine-1-carbonyl)piperidin-4-yl)-1H-pyrazol-4-yl)-4-methoxypyrazolo[1,5-a]pyridine-3-carbonitrile], the IC50 in test [1] was 0.045 µM; in test [2] it was 0.004 µM; in test [3], 0.004 µM; in test [4] it was 0.014 µM; in test [5] it was 0.004 µM. Moreover, in test [6], the “FGFR1 Enz kobs” value worked out at 0.00076 min⁻¹. The “FGFR3 Enz kobs” value in test [7] was found to be 0.00444 min⁻¹.

Take `C=CC(=O)N[C@H]1C[C@H](C(=O)N2CC[C@@H](n3cc(-c4cc(OC)c5c(C#N)cnn5c4)cn3)C2)C1` [Example 60, N-((1R,3r)-3-((R)-3-(4-(3-cyano-4-methoxypyrazolo[1,5-a]pyridin-6-yl)-1H-pyrazol-1-yl)pyrrolidine-1-carbonyl)cyclobutyl)acryl-amide]: the IC50 in test [1] is 0.203 µM; in test [2], 0.032 µM; in test [3] it was 0.031 µM; in test [4] it was 0.007 µM; in test [5] it was 0.007 µM. The “FGFR3 Enz kobs” value in test [7] was determined as 0.00083 min⁻¹.

For the molecule `C=CC(=O)N[C@H]1C[C@@H](C(=O)N2CC[C@@H](n3cc(-c4cc(OC)c5c(C#N)cnn5c4)cn3)C2)C1` [Example 61, N-((1S,3s)-3-((R)-3-(4-(3-cyano-4-methoxypyrazolo[1,5-a]pyridin-6-yl)-1H-pyrazol-1-yl)pyrrolidine-1-carbonyl)cyclobutyl)acryl-amide], the IC50 worked out at 0.346 µM in test [1]; 0.061 µM in test [2]; 0.028 µM in test [3]; 0.006 µM in test [4]; 0.005 µM in test [5]. Moreover, the “FGFR3 Enz kobs” value in test [7] was 0.00064 min⁻¹.

As to `C=CC(=O)N1CCC[C@@H](C(=O)N2CC[C@H](n3cc(-c4cc(OC)c5c(C#N)cnn5c4)cn3)C2)C1` [Example 64, 6-(1-((S)-1-((R)-1-acryloylpiperidine-3-carbonyl)pyrrolidin-3-yl)-1H-pyrazol-4-yl)-4-methoxypyrazolo[1,5-a]pyridine-3-carbonitrile], the IC50 was 0.094 µM in test [1]; 0.02 µM in test [2]; 0.023 µM in test [3]; 0.005 µM in test [4]; 0.002 µM in test [5]. Also, the “FGFR3 Enz kobs” value in test [7] worked out at 0.00074 min⁻¹.

`C=CC(=O)N[C@H]1CC[C@H](C(=O)N2CC[C@H](n3cc(-c4cc(OC)c5c(C#N)cnn5c4)cn3)C2)CC1` [Example 65, N-((1S,4r)-4-((S)-3-(4-(3-cyano-4-methoxypyrazolo[1,5-a]pyridin-6-yl)-1H-pyrazol-1-yl)pyrrolidine-1-carbonyl)cyclohexyl)acryl-amide]: the IC50 in test [1] came to 0.177 µM; in test [2], 0.056 µM; in test [3] it was 0.026 µM; in test [4] it was 0.006 µM; in test [5] it was 0.003 µM. Besides, in test [7], the “FGFR3 Enz kobs” value stood at 0.0002 min⁻¹.

Consider `C=CC(=O)N[C@H]1C[C@H](C(=O)N2CC[C@H](n3cc(-c4cc(OC)c5c(C#N)cnn5c4)cn3)C2)C1` [Example 74, N-((1S,3r)-3-((S)-3-(4-(3-cyano-4-methoxypyrazolo[1,5-a]pyridin-6-yl)-1H-pyrazol-1-yl)pyrrolidine-1-carbonyl)cyclobutyl)acryl-amide], for which the concentration for half-maximal inhibition (IC50) was determined as 0.018 µM in test [1]; 0.003 µM in test [2]; 0.019 µM in test [3]; 0.006 µM in test [4]; 0.002 µM in test [5]. In addition, the “FGFR3 Enz kobs” value in test [7] was found to be 0.00063 min⁻¹.

Take `C=CC(=O)N[C@H]1C[C@H](C(=O)N2CC(n3cc(-c4cc(OC)c5c(C#N)cnn5c4)cn3)C2)C1` [Example 79, N-((1r,3r)-3-(3-(4-(3-cyano-4-methoxypyrazolo[1,5-a]pyridin-6-yl)-1H-pyrazol-1-yl)azetidine-1-carbonyl)cyclobutyl)acryl-amide]: the IC50 in test [1] was found to be 0.447 µM; in test [2] it was 0.079 µM; in test [3], 0.036 µM; in test [4], 0.011 µM; in test [5], 0.01 µM. For the same molecule, the “FGFR3 Enz kobs” value in test [7] worked out at 0.00116 min⁻¹.

Turning to `CC#CC(=O)N1CC(C(=O)N2CCC(n3cc(-c4cc(OC)c5c(C#N)cnn5c4)cn3)CC2)C1` [Example 139, 6-(1-(1-(1-(but-2-ynoyl)azetidine-3-carbonyl)piperidin-4-yl)-1H-pyrazol-4-yl)-4-methoxypyrazolo [1,5-a]pyridine-3-carbonitrile], the half-maximal inhibitory concentration (IC50) was found to be 0.104 µM in test [1], 0.011 µM in test [2], 0.013 µM in test [3] and 0.004 µM in test [5]. Moreover, the “FGFR1 Enz kobs” value in test [6] is 0.00047 min⁻¹. Besides, in test [7], the “FGFR3 Enz kobs” value was found to be 0.00281 min⁻¹.
